Test results: patent publication US20110297235A1, “USE OF TRIARYLAMINE DERIVATIVES AS HOLE-CONDUCTING MATERIALS IN ORGANIC SOLAR CELLS AND ORGANIC SOLAR CELLS CONTAINING SAID TRIARYLAMINE DERIVATIVES” (BASF SE, priority 2009, published 2011)
≈ marks a conversion by molar mass, not a printed value.

Experiments:
[1] = Glass transition temperature Tg and morphology M by means of DSC; type: physicochemical
physchem = conditions: organic solvent or mixture
[2] = Decomposition temperature Td by means of TGA; type: physicochemical

Structure (SMILES)	glass transition temperature Tg [1] [°C]	solubility (physchem; solubility L in chlorobenzene) [mg/mL]	solubility (physchem; solubility in Ethyl acetate) [mg/mL]	solubility (physchem; solubility in Tetrahydrofuran) [mg/mL]	solubility (physchem; solubility in Toluene) [mg/mL]	decomposition temperature Td [2] [°C]	solubility (physchem; solubility in Anisole) [mg/mL]
COc1ccc(N(c2ccc(OC)cc2)c2ccc(N(c3ccccc3)c3ccc(-c4ccc(N(c5ccccc5)c5ccc(N(c6ccc(OC)cc6)c6ccc(OC)cc6)cc5)cc4)cc3)cc2)cc1 [ID320]	96	760 to 1000 (≈ 806 to 1060 mM)	140 (≈ 148 mM)	> 280	280 (≈ 297 mM)	450	
COc1ccc(N(c2ccc(OC)cc2)c2ccc(-c3ccc(N(c4ccccc4)c4ccc(-c5ccc(N(c6ccccc6)c6ccc(-c7ccc(N(c8ccc(OC)cc8)c8ccc(OC)cc8)cc7)cc6)cc5)cc4)cc3)cc2)cc1 [ID321]	143	900 to 1150 (≈ 822 to 1050 mM)	15 (≈ 13.7 mM)	> 240	> 100	460	
COc1ccc(N(c2ccc(N(c3ccccc3)c3ccc(N(c4ccccc4)c4ccc(N(c5ccc(OC)cc5)c5ccc6c(c5)C(C)(C)c5ccccc5-6)cc4)cc3)cc2)c2ccc3c(c2)C(C)(C)c2ccccc2-3)cc1 [ID366]	127	> 1100	> 560	> 440	> 380	460	
COc1ccc(N(c2ccc(OC)cc2)c2ccc(-c3ccc(N(c4ccc(OC)cc4)c4ccc(-c5ccc(N(c6ccc(OC)cc6)c6ccc(-c7ccc(N(c8ccc(OC)cc8)c8ccc(OC)cc8)cc7)cc6)cc5)cc4)cc3)cc2)cc1 [ID367]	136	700 to 1000 (≈ 606 to 865 mM)	70 to 80 (≈ 60.6 to 69.2 mM)	370 to 550 (≈ 320 to 476 mM)	320 to 500 (≈ 277 to 433 mM)	450	450 to 700 (≈ 389 to 606 mM)
COc1ccc(N(c2ccc(OC)cc2)c2ccc(-c3ccc(N(c4ccc(-c5ccc(N(c6ccc(-c7ccc(N(c8ccc(OC)cc8)c8ccc(OC)cc8)cc7)cc6)c6ccc(C(C)(C)C)cc6)cc5)cc4)c4ccc(C(C)(C)C)cc4)cc3)cc2)cc1 [ID368]	154	500 to 1000 (≈ 414 to 828 mM)	> 380	180 to 360 (≈ 149 to 298 mM)	> 240	460	
COc1ccc(N(c2ccc(OC)cc2)c2ccc(-c3ccc(N(c4ccc(-c5ccc(N(c6ccc(-c7ccc(N(c8ccc(OC)cc8)c8ccc(OC)cc8)cc7)cc6)c6ccc7c(c6)C(C)(C)c6ccccc6-7)cc5)cc4)c4ccc5c(c4)C(C)(C)c4ccccc4-5)cc3)cc2)cc1 [ID369]	154	300 to 450 (≈ 226 to 339 mM)	140 to 280 (≈ 105 to 211 mM)	100 to 150 (≈ 75.3 to 113 mM)	140 to 170 (≈ 105 to 128 mM)	460	
COc1ccc(N(c2ccc(OC)cc2)c2ccc(-c3ccc(N(c4ccc(OC)cc4)c4ccc(N(c5ccc(OC)cc5)c5ccc(-c6ccc(N(c7ccc(OC)cc7)c7ccc(OC)cc7)cc6)cc5)cc4)cc3)cc2)cc1 [ID446]	120	1250 to 2500 (≈ 1160 to 2320 mM)	50 to 65 (≈ 46.3 to 60.2 mM)	1000 to 2000 (≈ 927 to 1850 mM)	> 460	430	
COc1ccc(N(c2ccc(OC)cc2)c2ccc(-c3ccc(N(c4ccc(OC)cc4)c4ccc5c(c4)C(C)(C)c4cc(N(c6ccc(OC)cc6)c6ccc(-c7ccc(N(c8ccc(OC)cc8)c8ccc(OC)cc8)cc7)cc6)ccc4-5)cc3)cc2)cc1 [ID447]	137	900 to 1800 (≈ 753 to 1510 mM)	> 660	750 to 1500 (≈ 627 to 1250 mM)	> 520	430	
CCCCCCC1(CCCCCC)c2cc(N(c3ccc(OC)cc3)c3ccc(-c4ccc(N(c5ccc(OC)cc5)c5ccc(OC)cc5)cc4)cc3)ccc2-c2ccc(N(c3ccc(OC)cc3)c3ccc(-c4ccc(N(c5ccc(OC)cc5)c5ccc(OC)cc5)cc4)cc3)cc21 [ID450]	105	900 to 1800 (≈ 674 to 1350 mM)				420	
